Patent US11046690B2, “Pyridazinones and methods of use thereof” (Goldfinch Bio, Inc., priority 2018, dated 2021)

biological target: T1, TRPC4 (Homo sapiens, UniProt Q9UBN4); assay: TRPC4 activity assay (FLIPR calcium fluorescence, Englerin A stimulation); format: cell-based; conditions: HEK-TREx hTRPC4 cells, 100 nM Englerin A stimulation; read-out: TRPC4 (IC50 class)
T1 construct: expressed in transfected cells
T1 sequence (Q9UBN4 1-982 isoform Q9UBN4-5): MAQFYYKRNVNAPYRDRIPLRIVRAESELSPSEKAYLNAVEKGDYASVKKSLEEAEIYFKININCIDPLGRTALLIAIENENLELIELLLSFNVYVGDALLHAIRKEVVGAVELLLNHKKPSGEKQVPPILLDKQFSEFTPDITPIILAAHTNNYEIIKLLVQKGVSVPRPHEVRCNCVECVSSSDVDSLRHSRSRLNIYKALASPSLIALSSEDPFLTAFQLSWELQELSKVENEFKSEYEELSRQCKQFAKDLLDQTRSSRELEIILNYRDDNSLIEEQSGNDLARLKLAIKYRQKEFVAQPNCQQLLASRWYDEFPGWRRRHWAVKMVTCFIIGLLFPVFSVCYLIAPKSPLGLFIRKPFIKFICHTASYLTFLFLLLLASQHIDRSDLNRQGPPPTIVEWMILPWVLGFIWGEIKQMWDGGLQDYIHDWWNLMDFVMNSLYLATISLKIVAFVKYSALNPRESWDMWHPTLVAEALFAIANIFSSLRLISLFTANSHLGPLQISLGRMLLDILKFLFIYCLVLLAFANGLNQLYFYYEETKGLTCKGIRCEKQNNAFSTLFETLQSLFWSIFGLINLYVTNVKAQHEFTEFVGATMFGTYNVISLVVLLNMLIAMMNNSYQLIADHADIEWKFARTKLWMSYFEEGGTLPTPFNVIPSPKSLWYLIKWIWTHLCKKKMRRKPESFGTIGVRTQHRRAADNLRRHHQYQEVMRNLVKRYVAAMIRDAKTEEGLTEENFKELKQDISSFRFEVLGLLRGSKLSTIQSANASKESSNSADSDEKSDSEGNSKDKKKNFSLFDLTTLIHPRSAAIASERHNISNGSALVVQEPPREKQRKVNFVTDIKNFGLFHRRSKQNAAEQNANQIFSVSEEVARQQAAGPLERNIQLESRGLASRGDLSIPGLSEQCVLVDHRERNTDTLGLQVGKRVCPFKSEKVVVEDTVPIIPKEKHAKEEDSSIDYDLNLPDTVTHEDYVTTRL
Description: ICLN-1694 cells (HEK-TREx hTRPC4) expressing TRPC4 were generated as follows. Commercially available HekTrex-293 cells were seeded at 0.7×10^6 cells/well in a 1×6-well plate 24 hrs prior to transfection using 2 mL cell growth media containing no antibiotics (1× DMEM/high glucose (Hyclone #SH30022.02); 10%0/fetal bovine serum (Sigma) 2 mM sodium pyruvate, 10 mM HEPES). […] On day 2, 2 μg of plasmid DNA plus 6 μl of Xtreme-GENE HP reagent in Optimem (200 μl total volume) was prepared and incubated for 15 min at room temperature. This plasmid solution was then gently overlayed dropwise onto each well and the plate was gently swirled to mix complex with the media for approximately 30 seconds. Transfected cells were incubated at 37° C. in a 10% C02 incubator for 24 hrs. The transfected cells were harvested and transferred into 2×150 mm dishes containing cell growth media with no antibiotics at 37° C.
The next day selection was initiated to generate a stable pool by adding cell growth media containing 150 μg/mL Hygromycin and 5 μg/mL Blasticidin and cells were allowed to grow. Media with the selection agent was changed every 1-2 days as needed to remove dead cells. After 7 days, the hygromycin concentration was reduced to 75 μg/mL and cells growth was allowed to continue.
Single clones were selected as follows. The stable pool was diluted to 10 cells/mL and seeded (100 μl/well) into 24×96 well plates (˜1 cell/well) and allowed to grow for 7 days in cell growth media. Fresh media (100 μl) was added and the cells allowed to grow for another 1-2 weeks and then stored frozen or used immediately.
10-point dose response curves were generated using the Echo-550 acoustic dispenser. Compound source plates were made by serially diluting compound stocks to create 10 mM, 1 mM, and 0.1 mM solutions in DMSO into Echo-certified LDV plates. The Echo then serially spotted 100% DMSO stock solutions into source dose response plates to generate a 4-fold dilution scheme. 100% DMSO was added to the spotted dose response plates to bring the final volume to 5 μl. […] of the dose response stock plate was then spotted into pre-incubation and stimulation assay plates. 50 μl of pre-incubation buffer and 100 μl of stimulation buffer was then added to the plates resulting in a final assay test concentration range of 30 μM to 0.0001 μM with a final DMSO concentration of 0.3%.
ICLN-1694 cells (HEK-TREx hTRPC4) were plated onto 384 well, black pdl-coated microplates and maintained in cell growth media supplemented with 1 μg/mL tetracycline the day prior to use for experiments. TRPC4 expression was induced by the application of 1 μg/mL tetracycline at the time of plating. […] Cells were incubated at room temperature, protected from light, for 60-90 minutes. After the incubation period, the dye was removed and replaced with 10 μl of EBSS. Cell, pre-incubation and stimulation plates were loaded onto the FLIPR-II and the assay was initiated. The FLIPR measured a 10 second baseline and then added 10 μl of 2X compounds (or controls). Changes in fluorescence were monitored for an additional 5 minutes. After a 5 minute pre-incubation, 20 μl of 2X Englerin A (with 1X compound or controls) was added to the cell plate. The final Englerin A stimulation concentration in the assay was 100 nM. After the Englerin A addition, changes in fluorescence were monitored for an additional 5 minutes.
Compound modulation of TRPC4 calcium response was determined as follows. After the Englerin A, fluorescence was monitored for a 5-minute period. The maximum relative fluorescence response (minus the control response of 1 μM of an internal control compound known to maximally block TRPC4 calcium response, the “REF INHIB” in the formula below) was captured and exported from the FLIPR.
Compound effect is calculated as % inhibition using the following formula:
[formula] wherein “RFU” is the relative fluorescent units.

SMILES | IC50 [µM]
COc1nc2c(c(Oc3ccccc3C(F)(F)F)n1)CCN(c1cn[nH]c(=O)c1Cl)C2 [Compound 110, 4-Chloro-5-[2-methoxy-4-[2-(trifluoromethyl)phenoxy]-5H,6H,7H,8H-pyrido[3,4-d]pyrimidin-7-yl]-2,3-dihydropyridazin-3-one] | < 0.05
N#Cc1cccc(Oc2ncnc3c2CCN(c2cn[nH]c(=O)c2Cl)C3)c1Cl [Compound 108, 2-Chloro-3-[[7-(5-chloro-6-oxo-1,6-dihydropyridazin-4-yl)-5H,6H,7H,8H-pyrido[3,4-d]pyrimidin-4-yl]oxy]benzonitrile] | 0.5 to 1
O=c1[nH]ncc(N2CCc3c(ncnc3Oc3ccccc3C(F)F)C2)c1Cl [Compound 103, 4-Chloro-5-[4-[2-(difluoromethyl)phenoxy]-5H,6H,7H,8H-pyrido[3,4-d]pyrimidin-7-yl]-2,3-dihydropyridazin-3-one] | < 0.05
O=c1[nH]ncc(N2CCc3c(ncnc3Oc3cc(F)ccc3C(F)(F)F)C2)c1Cl [Compound 106] | 0.05 to 0.5
CCc1c(F)cccc1Oc1ncnc2c1CCN(c1cn[nH]c(=O)c1Cl)C2 [Compound 109, 4-Chloro-5-[4-(2-ethyl-3-fluorophenoxy)-5H,6H,7H,8H-pyrido[3,4-d]pyrimidin-7-yl]-2,3-dihydropyridazin-3-one] | 0.05 to 0.5
O=c1[nH]ncc(N2CCc3c(ccnc3Oc3ccc(F)cc3C(F)(F)F)C2)c1Cl [Compound 120, 4-chloro-5-[5-[4-fluoro-2-(trifluoromethyl)phenoxy]-1,2,3,4-tetrahydro-2,6-naphthyridin-2-yl]-2,3-dihydropyridazin-3-one] | < 0.05
O=c1[nH]ncc(N2CCc3c(nc(NCCO)nc3Oc3ccccc3C(F)(F)F)C2)c1Cl [Compound 115, 4-chloro-5-[2-[(2-hydroxyethyl)amino]-4-[2-(trifluoromethyl)phenoxy]-5H,6H,7H,8H-pyrido[3,4-d]pyrimidin-7-yl]-2,3-dihydropyridazin-3-one] | 0.05 to 0.5
O=c1[nH]ncc(N2CCc3c(ncnc3Oc3cnccc3C(F)(F)F)C2)c1Cl [Compound 107] | 0.05 to 0.5

Results, then the compound that gave them:

IC50 [µM] | SMILES
< 0.05 | Nc1nc2c(c(Oc3ccc(F)cc3C(F)(F)F)n1)CCN(c1cn[nH]c(=O)c1Cl)C2 [Compound 116]
< 0.05 | O=c1[nH]ncc(N2CCc3c(ncnc3Oc3ccccc3Cl)C2)c1Cl [Compound 101]
< 0.05 | C[C@@H](O)c1nc2c(c(Oc3ccc(F)cc3Cl)n1)CCN(c1cn[nH]c(=O)c1Cl)C2 [Compound 119]
< 0.05 | O=c1[nH]ncc(N2CCc3c(ncnc3Oc3ccc(F)cc3C(F)F)C2)c1Cl [Compound 105]
0.05 to 0.5 | Nc1nc2c(c(Oc3ccc(F)cc3Cl)n1)CCN(c1cn[nH]c(=O)c1Cl)C2 [Compound 112, 5-[2-amino-4-(2-chloro-4-fluorophenoxy)-5H,6H,7H,8H-pyrido[3,4-d]pyrimidin-7-yl]-4-chloro-2,3-dihydropyridazin-3-one]
0.05 to 0.5 | Nc1nc2c(c(Oc3ccccc3Cl)n1)CCN(c1cn[nH]c(=O)c1Cl)C2 [Compound 113]
0.05 to 0.5 | C[C@@H]1c2ncnc(Oc3ccc(F)cc3Cl)c2CCN1c1cn[nH]c(=O)c1Cl [Compound 118, 4-chloro-5-[(8R)-4-(2-chloro-4-fluorophenoxy)-8-methyl-5H,6H,7H,8H-pyrido[3,4-d]pyrimidin-7-yl]-2,3-dihydropyridazin-3-one]
< 0.05 | O=c1[nH]ncc(N2CCc3c(nc(CO)nc3Oc3ccc(F)cc3Cl)C2)c1Cl [Compound 114]
< 0.05 | Nc1nc2c(c(Oc3ccccc3C(F)(F)F)n1)CCN(c1cn[nH]c(=O)c1Cl)C2 [Compound 102]
